Results from US11026936B2, “Piperidinyl-propanone derivatives” (Merck Patent GmbH, priority 2016, dated 2021).

How the values were obtained:
PDHK2 = PDHK2 (Homo sapiens (Human), UniProt Q15119); test: Biochemical activity testing of PDHK2: PDC inactivation assay; details: human rec PDHK2, PDC from porcine heart, ATP 5 μM; read-out: IC50 PDHK2 (enzyme assay)
Text: Biochemical Activity Testing of PDHK2: PDC Inactivation Assay
The biochemical activity assay for PDHK2 is based on the inactivation of PDC through phosphorylation by PDHK2. The assay is run in two steps: the enzymatic PDHK2 reaction in which isolated PDC is phosphorylated by PDHK2 with ATP as co-substrate and the PDC activity assay in which pyruvate and NAD are converted to acetyl-CoA and NADH. The PDC activity correlates to the increase in NADH and thereby is detectable directly via the increasing fluorescence signal (Exc 340 nm, Em 450 nm). Inhibition of PDHK2 results in a lower phosphorylation status and thereby a less decrease in activity of PDC and a stronger increase in NADH fluorescence signal.
The PDC inactivation assay is performed in Greiner 384-well microtiter plates and is used for high throughput screen. 4 μl of PDHK2 (human, rec, Carna Bioscience, 10 ng/μl-137 nM final concentration) and PDC (isolated from porcine heart, Sigma-Aldrich, 20 mU/ml final concentration) are incubated in the absence or presence of the test compound (10 dilution concentrations) for 30 min at room temperature in kinase buffer (15 mM potassium phosphate buffer, pH 7.0, 60 mM KCl, 1.5 mM DTT, 2.5 mM MgCl2, 0.0125% (w/v) BSA, 0.125% Pluronic F-68). The kinase reaction is started by the addition of 4 μl ATP substrate solution (fc 5 μM in kinase buffer). After 30 min incubation at 37° C. 40 μl of PDC reaction solution (100 mM Tris/HCl, pH 7.8, 0.5 mM EDTA, 1 mM MgCl2, 50 mM NaF, 0.25 mM Coenzyme A, 5 mM pyruvate, 1 mM NAD, 5 mM DTT, 1 mM thiamine pyrophosphate) is added. The first fluorescence measurement is performed on a Perkin Elmer Envision (Exc 340 nm, Em 450 nm). The reaction is incubated for 45 min at room temperature. Afterwards a second fluorescence measurement is performed and the PDC activity is calculated by the difference between both measurements. As full value for the PDHK2 assay the inhibitor-free PDHK2 reaction is used. The pharmacological zero value used is DCA (Sigma-Aldrich) in a final concentration of 3 mM. The inhibitory values (IC50) were determined using either the program Symyx Assay Explorer® or Condosseo® from GeneData.

[1] = test system: PDH-E1alpha (pSer300) in HEK293T cells; test: Cellular immunofluorescence assay, PDH-E1alpha (pSer300); format: cell-based; details: Homo sapiens, HEK-293T, 5 hours incubation, read-out: IC50 (cell data)
Experimental: Cellular Assay for Determination of Compound Activities
Compound activities were determined in a cellular immunofluorescence assay. Human HEK293T cells were seeded into black 384-well plates with clear bottom and grown overnight.
Next day, test compounds were added to the wells and the plates incubated for 5 hours. Following this, cells were fixed with formaldehyde, permeabilised and blocked. The primary antibody, Anti-PDH-E1alpha (pSer300), AP1064 (Merck Millipore) was added and incubated overnight in the plate wells. Next, cells were washed and the seconday antibody, Alexa Fluor 488, goat anti-rabbit ab (A-11008, Invitrogen) was added together with Hoechst 33258 (H3569, Invitrogen) and incubated for 1 hour in the plate wells. Finally, cells were washed and the plates were measured on the laser scanning cytometer acumen hci (TTpLabtech).
The raw data were normalized against a pharmacological inhibitor control and dose response curves were generated by plotting the percent effect values using the software package Genedata screener (Genedata).

human PDHK2 (12-407) = human PDHK2 (12-407) (Homo sapiens (Human), UniProt Q15119); test: Isothermal titration calorimetry (ITC) binding; details: 30° C., pH 7.5
Experimental: Isothermal Titration Calorimetry
ITC measurements were performed with a VP-ITC micro calorimeter (Microcal, LLC/GE Healthcare Bio-Sciences AB, Uppsala, Sweden). In general titrations were performed by titrating the protein (50 μM) to the test compound (5 μM) in 12 μl injections. All binding experiments were carried out at 30° C. In general the test compounds were diluted form DMSO stock solutions into the measurement buffer with a maximum final concentration of 1% DMSO. The measurement buffer was 20 mM HEPES, 135 mM KCl, 1 mM TCEP, 2 mM MgCl2, 15 mM NaH2PO4, pH 7.5. The human PDHK2 (12-407) was produced in E. coli as his-tagged protein and purified by affinity chromatography. The tag was removed by side specific proteolysis. Before titration the protein buffer was changed to the measurement buffer containing the same DMSO concentration as the test compound dilution. ITC data analysis was performed using Origin 7 calorimetry software from the same supplier. For most measurements a binding model of one binding site was assumed. According to the applied mathematical model it is possible to calculate the binding constant (KA), the observed binding enthalpy (ΔH^obs) as well as the stoichiometry (N) of the formed complex. Preceding analysis the raw data was corrected for the heats of dilution by extrapolating from the saturation value from the end of titration. In order to allow for direct comparison between the respective experimental series and protein preparations the protein concentration was corrected by referencing titrations to a well behaved standard inhibitor. The apparent stoichiometry values defined the fraction of binding competent protein and compensated for relative errors in protein concentration measurements. This corrected protein concentration was used to set up ITC experiment series with test compounds. Any deviations from ideal 1:1 stoichiometry observed here were attributed to errors in compound concentration. This nominal compound concentration was corrected as well to achieve 1:1 stoichiometry in the fit.

SMILES	IC50 (PDHK2)	Kd (human PDHK2 (12-407))	IC50 [1]
C[C@H]1CN(C(=O)[C@@](C)(O)C(F)(F)F)CC[C@H]1C1(c2nnc(-c3ccccc3)o2)CC1 (stereo in doubt) [Compound A15, (R)-3,3,3-Trifluoro-2-hydroxy-2-methyl-1-{(S)-3-methyl-4-[1-(5-phenyl-[1,3,4]oxadiazol-2-yl)-cyclopropyl]-piperidin-1-yl}-propan-1-one]	11000 nM		7300 nM
C[C@@H]1CN(C(=O)[C@@](C)(O)C(F)(F)F)CC[C@@H]1C1(c2nnc(-c3ccccc3)o2)CC1 (stereo in doubt) [Compound A16, (R)-3,3,3-Trifluoro-2-hydroxy-2-methyl-1-{(R)-3-methyl-4-[1-(5-phenyl-[1,3,4]oxadiazol-2-yl)-cyclopropyl]-piperidin-1-yl}-propan-1-one]	150 nM	4.9 nM	35 nM
CC(C)(c1nnc(-c2ccccc2)[nH]1)C1CCN(C(=O)[C@@](C)(O)C(F)(F)F)CC1 [Compound A3, (R)-3,3,3-Trifluoro-2-hydroxy-2-methyl-1-{4-[1-methyl-1-(5-phenyl-4H-[1,2,4]triazol-3-yl)-ethyl]-piperidin-1-yl}-propan-1-one]	320 nM	98 nM	3300 nM
CC(C)(c1nnc(C2CCCCC2)[nH]1)C1CCN(C(=O)[C@@](C)(O)C(F)(F)F)CC1 [Compound A4, (R)-1-{4-[1-(5-Cyclohexyl-4H-[1,2,4]triazol-3-yl)-1-methyl-ethyl]-piperidin-1-yl}-3,3,3-trifluoro-2-hydroxy-2-methyl-propan-1-one]	1400 nM	290 nM	3900 nM
CC(C)(c1nnc(-c2ccccc2)o1)C1CCN(C(=O)[C@@](C)(O)C(F)(F)F)CC1 [Compound A9, (R)-3,3,3-Trifluoro-2-hydroxy-2-methyl-1-{4-[1-methyl-1-(5-phenyl-[1,3,4]oxadiazol-2-yl)-ethyl]-piperidin-1-yl}-propan-1-one]	720 nM	50 nM	650 nM
CC(C)(c1nnc(C2CCCCC2)o1)C1CCN(C(=O)[C@@](C)(O)C(F)(F)F)CC1 [Compound A10, (R)-1-{4-[1-(5-Cyclohexyl-[1,3,4]oxadiazol-2-yl)-1-methyl-ethyl]-piperidin-1-yl}-3,3,3-trifluoro-2-hydroxy-2-methyl-propan-1-one]	400 nM	120 nM	2000 nM
CC1CN(C(=O)[C@@](C)(O)C(F)(F)F)CCC1C1(c2nnc(-c3ccccc3)[nH]2)CC1 (stereo partly drawn) [Compound A11, (R)-3,3,3-Trifluoro-2-hydroxy-2-methyl-1-{3-methyl-4-[1-(5-phenyl-1H-[1,2,4]triazol-3-yl)-cyclopropyl]-piperidin-1-yl}-propan-1-one]	370 nM	8.3 nM	120 nM
CC1CN(C(=O)[C@@](C)(O)C(F)(F)F)CCC1C1(c2nnc(-c3ccccc3)o2)CC1 (stereo partly drawn) [Compound A12, (R)-3,3,3-Trifluoro-2-hydroxy-2-methyl-1-{3-methyl-4-[1-(5-phenyl-[1,3,4]oxadiazol-2-yl)-cyclopropyl]-piperidin-1-yl}-propan-1-one]	270 nM	8.7 nM	56 nM
C[C@@H]1CN(C(=O)[C@@](C)(O)C(F)(F)F)CC[C@@H]1C1(c2nnc(-c3ccccc3)[nH]2)CC1 [Compound A14, (R)-3,3,3-Trifluoro-2-hydroxy-2-methyl-1-{(3S,4S)-3-methyl-4-[1-(5-phenyl-4H-[1,2,4]triazol-3-yl)-cyclopropyl]-piperidin-1-yl}-propan-1-one]	130 nM	< 2 nM	19 nM
C[C@@H]1CN(C(=O)[C@@](C)(O)C(F)(F)F)CC[C@@H]1C1(c2nnc(-c3ccc(F)cc3)[nH]2)CC1 [Compound A19, (R)-3,3,3-Trifluoro-1-((3S,4S)-4-{1-[5-(4-fluoro-phenyl)-4H-[1,2,4]triazol-3-yl]-cyclopropyl}-3-methyl-piperidin-1-yl)-2-hydroxy-2-methyl-propan-1-one]	75 nM	4.2 nM	28 nM

More lines, main results first:

IC50 (PDHK2)	Kd (human PDHK2 (12-407))	SMILES	IC50 [1]
590 nM	110 nM	C[C@@](O)(C(=O)N1CCC(C2(c3nnc(-c4ccccc4)[nH]3)CC2)CC1)C(F)(F)F [Compound A1, (R)-3,3,3-Trifluoro-2-hydroxy-2-methyl-1-{4-[1-(5-phenyl-1H-[1,2,4]triazol-3-yl)-cyclopropyl]-piperidin-1-yl}-propan-1-one]	3000 nM
	180 nM	C[C@@](O)(C(=O)N1CCC(C2(c3nnc(-c4ccc(F)cc4)[nH]3)CC2)CC1)C(F)(F)F [Compound A2, (R)-3,3,3-Trifluoro-1-{4-{1-[5-(4-fluorophenyl)-4H-[1,2,4]triazol-3-yl]-cyclopropyl}-piperidin-1-yl}-2-hydroxy-2-methyl-propan-1-one]	2000 nM
440 nM	200 nM	C[C@@](O)(C(=O)N1CCC(C2(c3nnc(-c4ccccc4)o3)CC2)CC1)C(F)(F)F [Compound A5, (R)-3,3,3-Trifluoro-2-hydroxy-2-methyl-1-{4-[1-(5-phenyl-[1,3,4]oxadiazol-2-yl)-cyclopropyl]-piperidin-1-yl}-propan-1-one]	1500 nM
500 nM	270 nM	C[C@@](O)(C(=O)N1CCC(C2(c3nnc(-c4ccc(F)cc4)o3)CC2)CC1)C(F)(F)F [Compound A6, (R)-3,3,3-Trifluoro-1-{4-{1-[5-(4-fluoro-phenyl)-[1,3,4]oxadiazol-2-yl]-cyclopropyl}-piperidin-1-yl}-2-hydroxy-2-methyl-propan-1-one]	2000 nM
3500 nM	850 nM	Cc1nnc(C2(C3CCN(C(=O)[C@@](C)(O)C(F)(F)F)CC3)CC2)o1 [Compound A7, (R)-3,3,3-Trifluoro-2-hydroxy-2-methyl-1-{4-[1-(5-methyl-[1,3,4]oxadiazol-2-yl)-cyclopropyl]-piperidin-1-yl}-propan-1-one]	> 30000 nM
2400 nM	650 nM	CC(C)(C)c1nnc(C2(C3CCN(C(=O)[C@@](C)(O)C(F)(F)F)CC3)CC2)o1 [Compound A8, (R)-1-{4-[1-(5-tert-Butyl-[1,3,4]oxadiazol-2-yl)-cyclopropyl]-piperidin-1-yl}-3,3,3-trifluoro-2-hydroxy-2-methyl-propan-1-one]	8700 nM
